{
  "source": "patent US9920040B2",
  "about": "“GPR40 agonists for the treatment of type II diabetes” (Janssen Pharmaceutica NV, priority 2015, dated 2018)",
  "note": "Values joined by “and” are separate entries in the source; they are usually repeats but may differ in a detail not shown here. Equal entries are not always repeated.",
  "data": [
    {"target": "T1, human GPR40 (Homo sapiens, UniProt O14842)", "T1 construct": "expressed in transfected cells", "T1 sequence (O14842 whole entry)": "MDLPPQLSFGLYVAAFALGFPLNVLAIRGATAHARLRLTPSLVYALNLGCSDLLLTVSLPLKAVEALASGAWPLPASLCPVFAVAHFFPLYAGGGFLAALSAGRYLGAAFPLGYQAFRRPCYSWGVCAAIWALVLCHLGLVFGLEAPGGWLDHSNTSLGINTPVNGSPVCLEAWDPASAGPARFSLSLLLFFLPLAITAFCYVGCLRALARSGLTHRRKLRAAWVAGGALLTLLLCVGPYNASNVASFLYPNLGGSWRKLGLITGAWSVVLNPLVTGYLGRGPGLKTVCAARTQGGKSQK", "assay": "GPR40 calcium flux assay, human GPR40", "assay_type": "cell-based", "conditions": "transfected HEK293 cells stably expressing human GPR40; multiple values = repeated testing; read-out: hGPR40 Ca^2+ Assay EC50", "method": "Compounds were tested in a calcium flux assay using transfected HEK293 cells stably expressing either human GPR40 or rat GPR40. Human GPR40 expressing cells were cultured in DMEM-High Glucose media supplemented with 10% fetal bovine serum, 1×L-Glutamine, 1×Penicillin/Streptomycin and 500 μg/mL G418. Rat GPR40 expressing cells were cultured in DMEM-High Glucose media supplemented with 10% fetal bovine serum and 1 μg/mL puromycin. Cells were plated into poly-D-lysine coated 384-well plates and cultured overnight in a 37° C. humidified tissue culture incubator under 5% CO2/[…] atmosphere. On the day of the experiment, the culture media was replaced with assay buffer (HBSS, 20 mM HEPES, 0.1% BSA) and the cells incubated at 37° C. for 1 h. Calcium-sensitive fluorescent dye (Fluo 8 No-Wash Calcium Dye, ABD Bioquest) was then added and the cells incubated for another 30 min at 37° C. followed by 15 min at room temperature while protected from the light. The cell plate and a plate of diluted compounds of Formula (I) were loaded into a fluorescent plate reader that added compounds onto the cells while measuring the fluorescence intensity of each well. The plate reader recorded fluorescence intensity at 1 second intervals for 8 min and provided the data for analysis in an Excel format. EC50 values were calculated using Prism (GraphPad) software.", "values": [
      {"molecule": "COc1cc(OC)cc(-c2scc(COc3cccc([C@@H](CC(=O)O)C4CC4)c3)c2C2=CCCC2(C)C)c1", "note": "[Cpd 23, (3S)-3-cyclopropyl-3-[3-[[5-(3,5-dimethoxyphenyl)-4-(5,5-dimethylcyclopenten-1-yl)-3-thienyl]methoxy]phenyl]propanoic acid]", "EC50": "0.016 µM and 0.015 µM"},
      {"molecule": "CN(C)c1cccc(-c2scc(COc3cccc([C@@H](CC(=O)O)C4CC4)c3)c2C2=CCCC2(C)C)c1", "note": "[Cpd 17, (3S)-3-cyclopropyl-3-[3-[[5-[3-(dimethylamino)phenyl]-4-(5,5-dimethylcyclopenten-1-yl)-3-thienyl]methoxy]phenyl]propanoic acid]", "EC50": "0.242 µM and 0.232 µM"},
      {"molecule": "COc1cc(-c2onc(COc3cccc([C@@H](CC(=O)O)C4CC4)c3)c2OC2CCCCC2)c(F)cn1", "note": "[Cpd 48, (3S)-3-[3-[[4-(cyclohexoxy)-5-(5-fluoro-2-methoxy-4-pyridyl)isoxazol-3-yl]methoxy]phenyl]-3-cyclopropyl-propanoic acid]", "EC50": "0.024 µM and 0.021 µM"},
      {"molecule": "CC1(C)CCC=C1c1c(COc2cccc([C@@H](CC(=O)O)C3CC3)c2)csc1-c1ccccc1F", "note": "[Cpd 21, (3S)-3-cyclopropyl-3-[3-[[4-(5,5-dimethylcyclopenten-1-yl)-5-(2-fluorophenyl)-3-thienyl]methoxy]phenyl]propanoic acid]", "EC50": "0.11 µM and 0.066 µM"},
      {"molecule": "CC1(C)CCC=C1c1c(COc2cccc([C@@H](CC(=O)O)C3CC3)c2)csc1-c1cccc2[nH]ccc12", "note": "[Cpd 24, (3S)-3-cyclopropyl-3-[3-[[4-(5,5-dimethylcyclopenten-1-yl)-5-(1H-indol-4-yl)-3-thienyl]methoxy]phenyl]propanoic acid]", "EC50": "0.068 µM and 0.066 µM"},
      {"molecule": "COc1cccc(-c2scc(COc3cccc([C@@H](CC(=O)O)C4CC4)c3)c2C2=CCCC2(C)C)c1", "note": "[Cpd 26, (3S)-3-cyclopropyl-3-[3-[[4-(5,5-dimethylcyclopenten-1-yl)-5-(3-methoxyphenyl)-3-thienyl]methoxy]phenyl]propanoic acid]", "EC50": "0.026 µM and 0.024 µM"},
      {"molecule": "COc1ccc(F)c(-c2onc(COc3cccc([C@@H](CC(=O)O)C4CC4)c3)c2OCC2CC2)c1", "note": "[Cpd 41, (3S)-3-cyclopropyl-3-[3-[[4-(cyclopropylmethoxy)-5-(2-fluoro-5-methoxy-phenyl)isoxazol-3-yl]methoxy]phenyl]propanoic acid]", "EC50": "0.014 µM and 0.012 µM"},
      {"molecule": "COc1ccc(F)c(-c2onc(COc3cccc([C@@H](CC(=O)O)C4CC4)c3)c2OC2CC(C)(C)CC(C)(C)C2)c1", "note": "[Cpd 3, (3S)-3-cyclopropyl-3-[3-[[5-(2-fluoro-5-methoxy-phenyl)-4-(3,3,5,5-tetramethylcyclohexoxy)isoxazol-3-yl]methoxy]phenyl]propanoic acid]", "EC50": "0.005 µM"},
      {"molecule": "COc1ccc(F)c(-c2onc(COc3cccc([C@@H](CC(=O)O)C4CC4)c3)c2-c2ccc(C)s2)c1", "note": "[Cpd 32, (3S)-3-cyclopropyl-3-[3-[[5-(2-fluoro-5-methoxy-phenyl)-4-(5-methyl-2-thienyl)isoxazol-3-yl]methoxy]phenyl]propanoic acid]", "EC50": "0.031 µM and 0.027 µM"},
      {"molecule": "COc1ccc(F)c(-c2onc(COc3cccc([C@@H](CC(=O)O)C4CC4)c3)c2OC2CCCC2)c1", "note": "[Cpd 40, (3S)-3-[3-[[4-(cyclopentoxy)-5-(2-fluoro-5-methoxy-phenyl)isoxazol-3-yl]methoxy]phenyl]-3-cyclopropyl-propanoic acid]", "EC50": "0.008 µM and 0.007 µM"},
      {"molecule": "CC1(C)CCC=C1c1c(COc2cccc([C@@H](CC(=O)O)C3CC3)c2)csc1-c1ccsc1", "note": "[Cpd 16, (3S)-3-cyclopropyl-3-[3-[[4-(5,5-dimethylcyclopenten-1-yl)-5-(3-thienyl)-3-thienyl]methoxy]phenyl]propanoic acid]", "EC50": "0.087 µM and 0.065 µM"},
      {"molecule": "CCOc1c(COc2cccc([C@@H](CC(=O)O)C3CC3)c2)noc1-c1cc(OC)ncc1F", "note": "[Cpd 51, (3S)-3-cyclopropyl-3-[3-[[4-ethoxy-5-(5-fluoro-2-methoxy-4-pyridyl)isoxazol-3-yl]methoxy]phenyl]propanoic acid]", "EC50": "0.18 µM and 0.14 µM"},
      {"molecule": "CC1(C)CCC=C1c1c(COc2cccc([C@@H](CC(=O)O)C3CC3)c2)csc1-c1cccc2occc12", "note": "[Cpd 25, (3S)-3-[3-[[5-(benzofuran-4-yl)-4-(5,5-dimethylcyclopenten-1-yl)-3-thienyl]methoxy]phenyl]-3-cyclopropyl-propanoic acid]", "EC50": "0.101 µM and 0.068 µM"},
      {"molecule": "COc1ccccc1-c1scc(COc2cccc([C@@H](CC(=O)O)C3CC3)c2)c1C1=CCCC1(C)C", "note": "[Cpd 22, (3S)-3-cyclopropyl-3-[3-[[4-(5,5-dimethylcyclopenten-1-yl)-5-(2-methoxyphenyl)-3-thienyl]methoxy]phenyl]propanoic acid]", "EC50": "0.047 µM and 0.041 µM"},
      {"molecule": "COc1ccc(F)c(-c2onc(COc3cccc([C@@H](CC(=O)O)C4CC4)c3)c2CC(C)C)c1", "note": "[Cpd 35, (3S)-3-cyclopropyl-3-[3-[[5-(2-fluoro-5-methoxy-phenyl)-4-isobutyl-isoxazol-3-yl]methoxy]phenyl]propanoic acid]", "EC50": "0.008 µM and 0.006 µM"},
      {"molecule": "COc1ccc(F)c(-c2onc(COc3cccc([C@@H](CC(=O)O)C4CC4)c3)c2OCC(C)C)c1", "note": "[Cpd 39, (3S)-3-cyclopropyl-3-[3-[[5-(2-fluoro-5-methoxy-phenyl)-4-isobutoxy-isoxazol-3-yl]methoxy]phenyl]propanoic acid]", "EC50": "0.005 µM and 0.004 µM"},
      {"molecule": "COc1cc(-c2scc(COc3cccc([C@@H](CC(=O)O)C4CC4)c3)c2C2=CCCC2(C)C)c(F)cn1", "note": "[Cpd 27, (3S)-3-cyclopropyl-3-[3-[[4-(5,5-dimethylcyclopenten-1-yl)-5-(5-fluoro-2-methoxy-4-pyridyl)-3-thienyl]methoxy]phenyl]propanoic acid]", "EC50": "0.053 µM and 0.042 µM"},
      {"molecule": "COc1cc(-c2scc(COc3cccc([C@@H](CC(=O)O)C4CC4)c3)c2C2=CCCC2(C)C)ccn1", "note": "[Cpd 31, (3S)-3-cyclopropyl-3-[3-[[4-(5,5-dimethylcyclopenten-1-yl)-5-(2-methoxy-4-pyridyl)-3-thienyl]methoxy]phenyl]propanoic acid]", "EC50": "0.258 µM and 0.162 µM"},
      {"molecule": "CC1(C)CCC=C1c1c(COc2cccc([C@@H](CC(=O)O)C3CC3)c2)csc1-c1ccccc1", "note": "[Cpd 20, (3S)-3-cyclopropyl-3-[3-[[4-(5,5-dimethylcyclopenten-1-yl)-5-phenyl-3-thienyl]methoxy]phenyl]propanoic acid]", "EC50": "0.079 µM and 0.071 µM"},
      {"molecule": "COc1ccc(-c2scc(COc3cccc([C@@H](CC(=O)O)C4CC4)c3)c2C2=CCCC2(C)C)c(F)c1", "note": "[Cpd 18, (3S)-3-cyclopropyl-3-[3-[[4-(5,5-dimethylcyclopenten-1-yl)-5-(2-fluoro-4-methoxy-phenyl)-3-thienyl]methoxy]phenyl]propanoic acid]", "EC50": "0.305 µM and 0.152 µM"},
      {"molecule": "COc1ccc(F)c(-c2onc(COc3cccc([C@@H](CC(=O)O)C4CC4)c3)c2C2CC2)c1", "note": "[Cpd 37, (3S)-3-cyclopropyl-3-[3-[[4-cyclopropyl-5-(2-fluoro-5-methoxy-phenyl)isoxazol-3-yl]methoxy]phenyl]propanoic acid]", "EC50": "0.065 µM and 0.055 µM"},
      {"molecule": "COc1cncc(-c2scc(COc3cccc([C@@H](CC(=O)O)C4CC4)c3)c2C2=CCCC2(C)C)c1", "note": "[Cpd 28, (3S)-3-cyclopropyl-3-[3-[[4-(5,5-dimethylcyclopenten-1-yl)-5-(5-methoxy-3-pyridyl)-3-thienyl]methoxy]phenyl]propanoic acid]", "EC50": "0.083 µM and 0.074 µM"},
      {"molecule": "COc1ccc(F)c(-c2onc(COc3cccc([C@@H](CC(=O)O)C4CC4)c3)c2OCC2C(C)(C)C2(C)C)c1", "note": "[Cpd 11, (3S)-3-cyclopropyl-3-[3-[[5-(2-fluoro-5-methoxy-phenyl)-4-[(2,2,3,3-tetramethylcyclopropyl)methoxy]isoxazol-3-yl]methoxy]phenyl]propanoic acid]", "EC50": "0.058 µM"},
      {"molecule": "COc1ccc(F)c(-c2scc(COc3cccc([C@@H](CC(=O)O)C4CC4)c3)c2C2CC2)c1", "note": "[Cpd 14, (3S)-3-cyclopropyl-3-[3-[[4-cyclopropyl-5-(2-fluoro-5-methoxy-phenyl)-3-thienyl]methoxy]phenyl]propanoic acid]", "EC50": "0.108 µM and 0.089 µM"},
      {"molecule": "COc1ccc(F)c(-c2onc(COc3cccc([C@@H](CC(=O)O)C4CC4)c3)c2OCCC(F)(F)F)c1", "note": "[Cpd 49, (3S)-3-cyclopropyl-3-[3-[[5-(2-fluoro-5-methoxy-phenyl)-4-(3,3,3-trifluoropropoxy)isoxazol-3-yl]methoxy]phenyl]propanoic acid]", "EC50": "0.067 µM and 0.056 µM"},
      {"molecule": "COc1ccc(F)c(-c2onc(COc3cccc([C@@H](CC(=O)O)C4CC4)c3)c2OC(C)C)c1", "note": "[Cpd 42, (3S)-3-cyclopropyl-3-[3-[[5-(2-fluoro-5-methoxy-phenyl)-4-isopropoxy-isoxazol-3-yl]methoxy]phenyl]propanoic acid]", "EC50": "0.019 µM and 0.015 µM"},
      {"molecule": "COc1ccc(F)c(-c2onc(COc3cccc([C@@H](CC(=O)O)C4CC4)c3)c2-c2sccc2C)c1", "note": "[Cpd 33, (3S)-3-cyclopropyl-3-[3-[[5-(2-fluoro-5-methoxy-phenyl)-4-(3-methyl-2-thienyl)isoxazol-3-yl]methoxy]phenyl]propanoic acid]", "EC50": "0.215 µM and 0.178 µM"},
      {"molecule": "COc1ccc(F)c(-c2onc(COc3cccc([C@@H](CC(=O)O)C4CC4)c3)c2OC2CCC2)c1", "note": "[Cpd 43, (3S)-3-[3-[[4-(cyclobutoxy)-5-(2-fluoro-5-methoxy-phenyl)isoxazol-3-yl]methoxy]phenyl]-3-cyclopropyl-propanoic acid]", "EC50": "0.011 µM and 0.009 µM"},
      {"molecule": "COc1cc(-c2onc(COc3cccc([C@@H](CC(=O)O)C4CC4)c3)c2OCC(C)C)c(F)cn1", "note": "[Cpd 47, (3S)-3-cyclopropyl-3-[3-[[5-(5-fluoro-2-methoxy-4-pyridyl)-4-isobutoxy-isoxazol-3-yl]methoxy]phenyl]propanoic acid]", "EC50": "0.02 µM and 0.016 µM"}
    ]}
  ]
}
